Measurements reported in patent publication US20240398773A1, “COMPOSITIONS COMPRISING OTESECONAZOLE” (Mycovia Pharmaceuticals, Inc., priority 2021, published 2024).
Like-named read-outs stand apart in the source and are kept apart here.

Key:
[1] = Study CL-004 plasma PK; format: in vivo, human; conditions: for concentration at 24 h / concentration at 168 day / half-life / Tmax / Cmax / AUC(0-t): human, plasma; for concentration at 24 h: read-out: predicted minimum concentration (Cmin) at 24 hours after the final Day 3 dose; for half-life: read-out: median t1/2 (converted); for Tmax: read-out: median Tmax; for AUC(0-t): read-out: AUC0-8
Procedure: The ty, values were estimated on the basis of blood sampling that was carried out between approximately 7 and 168 days after administration of the first dose. […] The oteseconazole concentrations on Day 168 remained measurable (127, 409, and 1300 ng/mL for the 300 mg QD, 600 mg QD, and 600 mg BID treatment groups, respectively) and remained at or above therapeutic concentrations for the 600 mg QD and 600 mg BID treatment groups.
Based on the calculated Cmin values, only about 50% of the target was met for the 300 mg QD and 600 mg QD treatment groups, with the 600 mg BID treatment group reaching the target anticipated for the 600 mg QD group.

[2] = Study CL-006 plasma PK; format: in vivo, human; conditions: for AUC(0-t): read-out: AUC0-8
Text: Oteseconazole plasma concentrations continued to increase after the 7-day loading dose portion of the Maintenance Period until the end of dosing in an approximately dose-proportional manner FIG. 3.
Mean plasma PK parameters on Day 7 of the Maintenance Period are presented by treatment group in Table 12.

[3] = Study CL-007 DDI and PKE cohorts, plasma PK; format: in vivo; set-up: AUC(0-t) / AUC(0-inf): concentration or dose not given beside the values; conditions: human; for AUC(0-t): read-out: AUC0-24
Procedure: The median Tmax was 4.0 hours on Day 3 and 6.0 hours on Day 16. […] The increase in oteseconazole concentrations after 14 days of daily dosing was expected based on the long half-life of oteseconazole and are a consequence of accumulation and not of concomitant administration of midazolam.
The geometric mean AUC0-24 was 26120 h*ng/ml and the geometric mean AUC0-∞ was 57290 h*ng/mL. These values were consistent with the oteseconazole plasma PK parameters calculated on Day 3 in the DDI cohort.

[4] = system: acute VVC episodes; test: Study CL-012 culture-verified acute VVC episodes; format: in vivo, human; conditions: 150 mg QD for 7 days, then 150 mg QW for 11 weeks
Procedure: The average percentage of subjects with one or more culture-verified acute VVC episodes in the 150 mg oteseconazole group was 3.9% versus 39.4% in the placebo group.

[5] = 300 mg, 300 mg QD treatment group
[6] = 600 mg, 600 mg BID treatment group
[7] = 600 mg, 600 mg QD treatment group
[8] = human, plasma, 150 mg, Day 7, 150 mg, 12 weeks
[9] = human, plasma, 150 mg, Day 7, 150 mg, 24 weeks
[10] = human, plasma, 300 mg, Day 7, 300 mg, 12 weeks
[11] = human, plasma, 300 mg, Day 7, 300 mg, 24 weeks
[12] = DDI Cohort, Day 3, geometric mean
[13] = DDI Cohort, Day 16, geometric mean
[14] = PKE Cohort, Day 1, geometric mean

Question: For `O[C@@](Cn1cnnn1)(c1ccc(F)cc1F)C(F)(F)c1ccc(-c2ccc(OCC(F)(F)F)cc2)cn1` [Oteseconazole, oteseconazole], which “share of target Cmin met” value ([1]; 300 mg QD and 600 mg QD treatment groups) is on record?
Answer: about 50%

Question: And the concentration at 24 h ([1]; 300 mg, 300 mg QD dose group)?
Answer: 705 ng/mL

Question: What about the concentration at 168 day [1, 5] of the same compound?
Answer: 127 ng/mL

Question: What about the half-life [1, 5] of the same compound?
Answer: 75.9 days

Question: What about the concentration at 24 h ([1]; 600 mg, 600 mg BID dose group) of the same compound?
Answer: 2830 ng/mL

Question: What about the concentration at 168 day [1, 6] of the same compound?
Answer: 1300 ng/mL

Question: And the half-life [1, 6]?
Answer: 160 days

Question: What about the concentration at 24 h ([1]; 600 mg, 600 mg QD dose group) of the same compound?
Answer: 1000 ng/mL

Question: And the concentration at 168 day [1, 7]?
Answer: 409 ng/mL

Question: What about the half-life [1, 7] of the same compound?
Answer: 133 days

Question: What about the Tmax ([1]; 300 mg dose) of the same compound?
Answer: 4 h

Question: What about the Tmax ([1]; 600 mg dose) of the same compound?
Answer: 5.5 h

Question: And the Cmax ([1]; Day 1, 300 mg dose)?
Answer: 407 ng/mL

Question: What about the AUC(0-t) ([1]; Day 1, 300 mg dose) of the same compound?
Answer: 1.87 µg·h/mL

Question: What about the Cmax ([1]; Day 1, 600 mg dose) of the same compound?
Answer: 968 ng/mL

Question: What about the AUC(0-t) ([1]; Day 1, 600 mg dose) of the same compound?
Answer: 4.23 µg·h/mL

Question: What about the Tmax ([2]; Day 7, 150 mg, 24 weeks) of the same compound?
Answer: 4.93 h

Question: What about the Tmax ([2]; Day 7, 300 mg, 12 weeks) of the same compound?
Answer: 4.92 h

Question: And the Cmax [2, 8]?
Answer: 1340 ng/mL

Question: What about the AUC(0-t) [2, 8] of the same compound?
Answer: 9.12 µg·h/mL

Question: And the Cmax [2, 9]?
Answer: 1800 ng/mL

Question: What about the AUC(0-t) [2, 9] of the same compound?
Answer: 12.3 µg·h/mL

Question: What about the Cmax [2, 10] of the same compound?
Answer: 2750 ng/mL

Question: And the AUC(0-t) [2, 10]?
Answer: 20.5 µg·h/mL

Question: And the Cmax [2, 11]?
Answer: 3120 ng/mL

Question: And the AUC(0-t) [2, 11]?
Answer: 21.6 µg·h/mL

Question: What about the concentration at 48 week ([2]; human, plasma, 150 mg oteseconazole) of the same compound?
Answer: 2150 ng/mL

Question: And the concentration at 48 week ([2]; human, plasma, 300 mg oteseconazole)?
Answer: 5090 ng/mL

Question: And the Tmax ([2]; human, plasma, Day 7, 150 mg, 12 weeks, read-out: Tmax)?
Answer: 4 h

Question: And the half-life ([2]; human, plasma, calculated using a population PK approach)?
Answer: ~171 days

Question: And the AUC(0-inf) [3, 12]?
Answer: 49.4 µg·h/mL

Question: What about the Cmax [3, 12] of the same compound?
Answer: 1910 ng/mL

Question: What about the AUC(0-t) [3, 12] of the same compound?
Answer: 24.6 µg·h/mL

Question: What about the Tmax ([3]; DDI Cohort, Day 3, median) of the same compound?
Answer: 4 h

Question: And the AUC(0-inf) [3, 13]?
Answer: 4880 µg·h/mL

Question: And the Cmax [3, 13]?
Answer: 11600 ng/mL

Question: What about the AUC(0-t) [3, 13] of the same compound?
Answer: 243 µg·h/mL

Question: What about the Tmax ([3]; DDI Cohort, Day 16, median) of the same compound?
Answer: 6 h

Question: And the AUC(0-inf) [3, 14]?
Answer: 57.3 µg·h/mL

Question: And the Cmax [3, 14]?
Answer: 1900 ng/mL

Question: What about the AUC(0-t) [3, 14] of the same compound?
Answer: 26.1 µg·h/mL

Question: What about the Tmax ([3]; PKE Cohort, Day 1, median) of the same compound?
Answer: 6 h

Question: What about the “average percentage of subjects with one or more culture-verified acute VVC episodes” value [4] of the same compound?
Answer: 3.9%
